The values below come from US8202540B1, “Method for controlled production of ultrafine microparticles and nanoparticles” (Abbott GmbH & Co., KG, priority 1999, dated 2012).

Type in all cases: physicochemical
Series [1] in a line: Particle size by laser diffractometry (LD, Coulter LS230).
A short description of series [2]: Average particle diameter determined by light microscopy. The conditions noted are these: Example 14: propylene glycol, 0.2% Tween 80; 700 bar, room temperature, 30 minutes, degassed medium, nitrogen. The text has this: 10% tragacanth was dispersed in Miglyol 812 with addition of 1% Span 80 and microparticles prepared as described in example 1. The average diameter determined by light microscopy was 7.54 μm after 10 cycles at 1500 bar.
Preparation of a Clinical Batch Under Oxygen-Poor Conditions and protective gassing: azodicarbonamide (1) was dispersed with addition of Tween 80 (0.2%) analogously to example 12 in 2 kg propylene glycol and homogenized (homogenization pressure: 700 bar, room temperature) in a cyclical process for 30 minutes with a Micron LAB 60 (APV Deutschland GmbH, Lubeck, Germany). Propylene glycol was degassed beforehand by heating. The product container was kept under nitrogen. The average diameter determined by light microscopy was 5.45 μm after 30 minutes' homogenization time.

A short description of series [3]: Particle size by photon correlation spectroscopy (PCS, Zetasizer 4). The conditions noted are these: Example 2: anhydrous glycerol, 20 cycles at 1500 bar. The source says: The characterization of the superfine microparticle dispersions and nanoparticles was by means of laser diffractometry (LD) (Coulter LS230, Coulter Electronics, Miami, USA) and photon correlation spectroscopy (PCS) (Zetasizer 4, Malvern Instruments, Malvern, United Kingdom). Characterization parameters were the 50% (D50%), 90% (D90%) and 95% (D95%) LD diameter measured by LD. The PCS (measurement range approx. 3 nm-3 μm) gives the PCS diameter and, as a measure of the width of the distribution, the polydispersity index (PI) in the range from 0.000 (+ideal monodispersion) to 0.500 (very broad distribution), above 0.5 no further conclusions can be drawn with regard to the width of distribution.

Where [4] appears, read: Example 12: 10% in PEG 400, 0.5% Tween 80, 4 cycles at 1500 bar.
The mark [5] stands for this setting: Example 1: 1% drug, 0.5% Tween 80, anhydrous glycerol, 6 cycles at 1500 bar, room temperature.
The mark [6] stands for this setting: Example 3: anhydrous glycerol, 10 cycles at 1500 bar.
Setting [7] is: Example 3: purely aqueous dispersion (glycerol replaced by water), 10 cycles at 1500 bar.
[8] abbreviates: Example 6: 1.0% water, 4 cycles at 1500 bar.
Where [9] appears, read: Example 6: anhydrous (0% water), 4 cycles at 1500 bar.
The mark [10] stands for this setting: Example 7: 10% water, 4 cycles at 1500 bar.
Setting [11] is: Example 7: 30% water, 4 cycles at 1500 bar.
Where [12] appears, read: Example 8: 50% water, 4 cycles at 1500 bar.
[13] abbreviates: Example 13: 10 cycles at 1500 bar.

As for `NC(=O)N=NC(N)=O` [azodicarbonamide], in series [1] (setting [4]), the 50% diameter was 3.0 μm, the D90% was 6.2 μm and the D95% turned out to be 7.2 μm. The “average diameter determined by light microscopy” value in series [2] is given as 5.45 μm.

On to `CC1CN(c2nc(N(CCO)CC(C)(C)O)c3nc(-c4ccccc4)c(N4CC(C)OC(C)C4)nc3n2)CC(C)O1` (stereo not drawn) [drug from example 1, 1-[[2,7-bis(2,6-dimethyl-4-morpholinyl)-6-phenyl-4-pteridinyl]-(2-hydroxyethyl)-amino]-2-methyl-[cis[cis]]-propan-2-ol], for which the “D50% LD diameter” value in series [1] (setting [5]) is given as 1.7 μm. Moreover, the “D90% LD diameter” value in series [1] (setting [5]) came to 4.5 μm. The “D95% LD diameter” value in series [1] (setting [5]) was determined as 5.4 μm. Further, the D50% diameter came to 1.3 μm in series [1] (setting [6]); 0.9 μm in series [1] (setting [7]); 2.1 μm in series [1] (setting [8]); 1.9 μm in series [1] (setting [9]); 1.7 μm in series [1] (setting [10]); 1.7 μm in series [1] (setting [11]). This compound had a D50% diameter in series [1] (setting [12]) of 1.5 μm. The D90% diameter in series [1] (setting [6]) is reported as 3.2 μm; in series [1] (setting [7]), 2.3 μm; in series [1] (setting [8]) it was 5.4 μm; in series [1] (setting [9]), 4.9 μm; in series [1] (setting [10]) it was 4.1 μm; in series [1] (setting [11]) it was 4.2 μm. Also, the D90% diameter in series [1] (setting [12]) is given as 3.7 μm. The 95% diameter in series [1] (Example 13: 0% water (pure glycerol), 10 cycles at 1500 bar) turned out to be 3.9 μm; in series [1] (Example 13: pure water, 10 cycles at 1500 bar), 2.8 μm. The “D50% across dispersion media of 0% to 100% water” value in series [1] (setting [13]) is on record as “little change”. For the same compound, in series [1] (setting [13]), the “difference in 95% diameter, pure glycerol vs pure water” value is “approx. 1.1 μm”. For the same compound, the “difference in D95%, 2 cycles vs 10 cycles” value in series [1] (Example 13: pure glycerol (0% water), 1500 bar) is “approx. 3.1 μm”. Moreover, the D95% in series [1] (Example 13: pure glycerol (0% water), after 2 cycles at 1500 bar) is on record as 7.0 μm. Also, the “average PCS diameter” value in series [3] is 950 nm. The “polydispersity index (PI)” value in series [3] was found to be 0.513.
